Values quoted from earlier work in patent publication US20240016803A1, “PHARMACEUTICAL COMPOSITION COMPRISING EICOSAPENTAENOIC ACID AND DERIVATIVES THEREOF AND A STATIN” (Amarin Pharmaceuticals Ireland Limited, priority 2013, published 2024).

Conditions: repeated twice-daily dosing of 2 icosapent ethyl 1 g capsules (4 g/d total); previously reported

mean elimination half-life (t1/2) for total plasma EPA: 89 h
Structure (SMILES): CC/C=C\C/C=C\C/C=C\C/C=C\C/C=C\CCCC(=O)OCC [icosapent ethyl]
